For 15 molecules, EC50 results are on record in patent publication US8030354B2, “Substituted biphenyl GPR40 modulators” (Amgen Inc., priority 2007, dated 2011).

Experiment [1] addresses T1, GPR40 (Homo sapiens, UniProt O14842). Kind of experiment: Cell-based aequorin assay (CHO cells stably expressing GPR40 and aequorin). Further details: expressed in transfected cells; host or cells: CHO cells stably transfected with GPR40 and aequorin. The following applies: activation of human GPR40, CHO cells, 0.01% HSA. The procedure, abridged: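 CHO cells stably co-expressing GPR40 and aequorin, loaded with coelenterazine (1 ug/mL, 2 h, room temperature) in H/HBSS with 20 mM Hepes and 0.01% fatty acid-free HSA. Serially diluted compounds added; luminescence recorded over 20 s. EC50 from dose-response of maximum relative light units.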

Experiment [2] concerns the target T1, GPR40. Put plainly: Inositol phosphate accumulation assay (A9_GPR40 cells). It counts as cell-based. Further details: expressed in transfected cells; host or cells: CHO cells stably transfected with GPR40 and aequorin. To be noted: inositol phosphate assay, A9_GPR40 cells, 1 hour; read-out: IP3 EC50. Put shortly:
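[^3H] inositol phosphate accumulation was measured by SPA after 1 h compound exposure at 37° C in HBSS/10 mM LiCl containing HSA, ending with a 20 mM formic acid quench. The GPR40-transfected A9 cells had first been labelled overnight (16 h) with 1 μCi/mL ^3H-inositol.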

T1 sequence (O14842 whole entry): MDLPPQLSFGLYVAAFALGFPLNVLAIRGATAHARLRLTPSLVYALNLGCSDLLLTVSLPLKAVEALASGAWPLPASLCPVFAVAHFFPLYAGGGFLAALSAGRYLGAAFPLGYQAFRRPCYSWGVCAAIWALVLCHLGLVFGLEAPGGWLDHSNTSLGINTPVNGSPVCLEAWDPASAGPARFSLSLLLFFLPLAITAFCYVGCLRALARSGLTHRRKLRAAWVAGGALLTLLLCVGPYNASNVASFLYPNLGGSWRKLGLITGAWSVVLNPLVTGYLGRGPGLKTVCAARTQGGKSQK

A word on the EC50: it is the midpoint of the concentration-response curve. As to `COCC(C)(C)C(OC)c1cc(COc2cccc(C(CC(=O)O)C3CC3)c2)ccc1-c1cc(OC)ccc1F` (single isomer, unassigned) [Example 66.42, (S)-3-Cyclopropyl-3-{3-[2-(1,3-dimethoxy-2,2-dimethyl-propyl)-2′-fluoro-5′-methoxy-biphenyl-4-ylmethoxy]-phenyl}-propionic acid or (S)-3-Cyclopropyl-3-{3-[2-(1,3-dimethoxy-2,2-dimethyl-propyl)-2′-fluoro-5′-methoxy-biphenyl-4-ylmethoxy]-phenyl}-propionic acid], the EC50 at GPR40 [1] lay in the range of 100 to 1000 nM; at GPR40 [2] it was 10 to 100 nM.
The corresponding values for `COc1ccc(F)c(-c2cc(F)c(COc3cccc([C@@H](CC(=O)O)C4CC4)c3)cc2C2=CCCC2(C)C)c1` (single isomer, unassigned) [Example 66.43, (3S)-3-Cyclopropyl-3-(3-(((2-(5,5-dimethyl-1-cyclopenten-1-yl)-2′,5-difluoro-5′-(methyloxy)-1,1′-biphenyl-4-yl)methyl)oxy)phenyl)propanoic acid or (3R)-3-cyclopropyl-3-(3-(((2-(5,5-dimethyl-1-cyclopenten-1-yl)-2′,5-difluoro-5′-(methyloxy)-1,1′-biphenyl-4-yl)methyl)oxy)phenyl)propanoic acid] are 100 to 1000 nM and below 10 nM.
The like results for `COc1ccc(F)c(-c2cc(F)c(COc3cccc([C@@H](CC(=O)O)C4CC4)c3)cc2[C@H]2CCCC2(C)C)c1` (single isomer, unassigned) [Example 66.44] were, in that order, 10 to 100 nM and below 10 nM.
The corresponding values for `COc1ccc(F)c(-c2c(F)cc(COc3cccc([C@@H](CC(=O)O)C4CC4)c3)cc2C2=CCCC2(C)C)c1` (single isomer, unassigned) [Example 66.49, (3S)-3-Cyclopropyl-3-(3-(((2-(5,5-dimethyl-1-cyclopenten-1-yl)-2′,6-difluoro-5′-(methyloxy)-1,1′-biphenyl-4-yl)methyl)oxy)phenyl)propanoic acid or (3R)-3-cyclopropyl-3-(3-(((2-(5,5-dimethyl-1-cyclopenten-1-yl)-2′,6-difluoro-5′-(methyloxy)-1,1′-biphenyl-4-yl)methyl)oxy)phenyl)propanoic acid] are 100 to 1000 nM and 10 to 100 nM.
Regarding `CC1(C)CCC=C1c1cc(COc2cccc([C@@H](CC(=O)O)C3CC3)c2)ccc1-c1cc(C(F)F)ccc1F` (single isomer, unassigned) [Example 66.50, (3S)-3-Cyclopropyl-3-(3-(((5′-(difluoromethyl)-2-(5,5-dimethyl-1-cyclopenten-1-yl)-2′-fluoro-1,1′-biphenyl-4-yl)methyl)oxy)phenyl)propanoic acid or (3R)-3-cyclopropyl-3-(3-(((5′-(difluoromethyl)-2-(5,5-dimethyl-1-cyclopenten-1-yl)-2′-fluoro-1,1′-biphenyl-4-yl)methyl)oxy)phenyl)propanoic acid], the EC50 at GPR40 [1] and at GPR40 [2] was 100 to 1000 nM each time.
As to `CC1(C)CCC[C@@H]1c1cc(COc2cccc([C@@H](CC(=O)O)C3CC3)c2)ccc1-c1cc(C(F)F)ccc1F` (single isomer, unassigned) [Example 66.51], the results for the EC50 at GPR40 [1] and at GPR40 [2] were 100 to 1000 nM and 10 to 100 nM, respectively.
Turning to `COc1ccc(F)c(-c2ccc(COc3cccc([C@@H](CC(=O)O)C4CC4)c3)cc2[C@H]2OCCCC2(C)C)c1` (single isomer, unassigned) [Example 66.54], the half-maximal effective concentration (EC50) on GPR40 [1] fell in the range of 100 to 1000 nM; at GPR40 [2] it was 10 to 100 nM.
The like results for `COc1ccc(F)c(-c2ccc(COc3cccc([C@@H](CC(=O)O)C4CC4)c3)cc2[C@H]2CCC[C@@H]2C)c1` (single isomer, unassigned) [Example 66.56] were, in that order, 100 to 1000 nM and 10 to 100 nM.
The corresponding values for `CCC(C)(C)[C@H](OC)c1cc(COc2cccc([C@@H](CC(=O)O)C3CC3)c2)ccc1-c1cc(OC)ccc1F` (single isomer, unassigned) [Example 66.62] are 10 to 100 nM and below 10 nM.
With `COc1ccc(F)c(-c2ccc(COc3cccc([C@@H](CC(=O)O)C4CC4)c3)cc2COC(C)(C)C)c1` (single isomer, unassigned) [Example 66.63, (3S)-3-Cyclopropyl-3-(3-(((2-(((1,1-dimethylethyl)oxy)methyl)-2′-fluoro-5′-(methyloxy)-1,1′-biphenyl-4-yl)methyl)oxy)phenyl)propanoic acid or (3R)-3-cyclopropyl-3-(3-(((2-(((1,1-dimethylethyl)oxy)methyl)-2′-fluoro-5′-(methyloxy)-1,1′-biphenyl-4-yl)methyl)oxy)phenyl)propanoic acid], the EC50 at GPR40 [1] and on GPR40 [2] was 1000 to 10000 nM in each case.
`COc1cc(-c2ccc(COc3cccc(C(CC(=O)O)C4CC4)c3)cc2C2=CCCC2(C)C)ccn1` (single isomer, unassigned) [Example 66.66, (3S)-3-(3-(3-(5,5-Dimethylcyclopent-1-enyl)-4-(2-methoxypyridin-4-yl)benzyloxy)phenyl)-3-cyclopropylpropanoic acid or (3R)-3-(3-(3-(5,5-dimethylcyclopent-1-enyl)-4-(2-methoxypyridin-4-yl)benzyloxy)phenyl)-3-cyclopropylpropanoic acid]: the EC50 at GPR40 [1] was 100 to 1000 nM; on GPR40 [2], 10 to 100 nM.
The like results for `C=CC1(c2cc(COc3cccc([C@@H](CC(=O)O)C4CC4)c3)ccc2-c2cc(OC)ncc2F)CCCC1` (single isomer, unassigned) [Example 66.67, (3S)-3-(3-(4-(5-Fluoro-2-methoxypyridin-4-yl)-3-(1-vinylcyclopentyl)benzyloxy)phenyl)-3-cyclopropylpropanoic acid or (3R)-3-(3-(4-(5-fluoro-2-methoxypyridin-4-yl)-3-(1-vinylcyclopentyl)benzyloxy)phenyl)-3-cyclopropylpropanoic acid] were, in that order, 100 to 1000 nM and 10 to 100 nM.
The like results for `COc1ccc(F)c(-c2ccc(COc3cccc([C@@H](CC(=O)O)C4CC4)c3)cc2C2=CCCC2)c1` (single isomer, unassigned) [Example 66.68, (S)-3-[3-(2-Cyclopent-1-enyl-2′-fluoro-5′-methoxy-biphenyl-4-ylmethoxy)-phenyl]-3-cyclopropyl-propionic acid or (R)-3-[3-(2-cyclopent-1-enyl-2′-fluoro-5′-methoxy-biphenyl-4-ylmethoxy)-phenyl]-3-cyclopropyl-propionic acid] were, in that order, 100 to 1000 nM and 10 to 100 nM.
The corresponding values for `COc1ccc(F)c(-c2ccc(COc3cccc([C@@H](CC(=O)O)C4CC4)c3)cc2CN2[C@H](C)CCC[C@H]2C)c1` (single isomer, unassigned) [Example 66.69] are 100 to 1000 nM and 10 to 100 nM.
Consider `COc1ccc(F)c(-c2ccc(COc3cccc(C(CC(=O)O)C4CC4)c3)cc2CN2C(C)CCCC2C)c1` (single isomer, unassigned) [Example 66.70], for which the EC50 fell in the range of 100 to 1000 nM at GPR40 [1] and 10 to 100 nM on GPR40 [2].
